Usually EC50 stands for the midpoint of the concentration-response curve.

One data set relates to SARS-CoV-2. Description: SARS-CoV-2 Nluc antiviral assay in A549-hACE2 cells. Format: cell-based. Conditions: for Nluc signal (SARS-CoV-2 replication): 10 μM of CQ or HCQ alone.
For data set [1] the following is noted: doses recommended under the former EUA guidance for COVID-19; cited from earlier work.
Data set [2] concerns A549-hACE2 cells. Conditions: for Mean RDV-TP: human, 1 μM.
For data set [3], the system named is HEp-2 cells.
The subject of data set [4] is respiratory syncytial virus (RSV). The data set can be described thus: microbe, parasite or virus in culture. Format: cell-based. Conditions: human respiratory syncytial virus, HEp-2, read-out: Formula Ia RSV EC50, HEp2 cells. The method, then: The cells were then infected with RSV A2 virus diluted in DMEM medium+GlutaMAX at an MOI=4 and incubated for 4 days at 37° C. and 5% CO2. The final volume in each well was 200 μL. Uninfected and untreated wells were included as controls for 100% cell viability. Following the incubation, 100 μL of culture supernatant was removed from each well and replaced with 100 μL of CellTiter-Glo reagent (Promega). The plates were then rocked for 2 minutes followed by a 10-minute incubation at 25° C. Cell viability was then assessed by measuring luminescence signal using and Envision plate reader. Values were normalized to the uninfected and infected DMSO controls (as 100% and 0% […], respectively) and data was fit using non-linear regression analysis with the XLfit software.

Data set [5] concerns HEp-2 cells. The data set can be described thus: Formula Ia triphosphate (RDV-TP) formation in HEp-2 cells, LC-MS/MS. Conditions: 2 h.
The test system of data set [6] is A549-hACE2 cells. Conditions: Formula Ia and HCQ combination concentrations analyzed (data not shown).
The mark [7] stands for this setting: Severe acute respiratory syndrome coronavirus 2, read-out: SARS-CoV-2 Nluc EC50, A549-hACE2 cells, single agent + DMSO.

Like-named read-outs stand apart in the source and are kept apart here.

With `CCN(CC)CCCC(C)Nc1ccnc2cc(Cl)ccc12` (centres unmarked) [CQ, N′-(7-chloroquinolin-4-yl)-N,N-diethyl-pentane-1,4-diamine, reference compound], in the data set with SARS-CoV-2 (A549-hACE2 cells), the “Nluc signal (SARS-CoV-2 replication)” value is listed as “fully suppressed”. Besides, the half-maximal effective concentration (EC50) in the data set on SARS-CoV-2 (setting [7]) is approximately 451 nM. Moreover, in the data set with NHBE cultures, the “Effect on Formula Ia-TP levels” value is given as “not statistically significant”. Moreover, the Average systemic exposures in data set [1] is 610 to 760 nM. Further, in the data set on A549-hACE2 cells [2], the “Effect on Formula Ia-TP levels” value is “did not significantly reduce” and the “Effect on production of Formula Ia-TP” value is “did significantly lower”. Besides, the “Effect on formation of intracellular Formula Ia-TP” value in the data set on HEp-2 cells [3] is “dose-dependent reduction”.
`CCC(CC)COC(=O)[C@H](C)N[P@](=O)(OC[C@H]1O[C@@](C#N)(c2ccc3c(N)ncnn23)[C@H](O)[C@@H]1O)Oc1ccccc1` [Formula Ia, (S)-2-ethylbutyl 2-(((S)-(((2R,3S,4R,5R)-5-(4-aminopyn-olo[2,1-f][1,2,4]triazin-7-yl)-5-cyano-3,4-dihydroxytetrahydrofuran-2-yl)methoxy)(phenoxy)phosphoryl)amino)propanoate]: the EC50 in the data set with SARS-CoV-2 (read-out: SARS-CoV-2 Nluc EC50, A549-hACE2 cells, + 10 nm HCQ) was found to be 63.6 nM; in the data set on SARS-CoV-2 (read-out: SARS-CoV-2 Nluc EC50, A549-hACE2 cells, + 40 nm HCQ), 50.7 nM; in the data set on SARS-CoV-2 (read-out: SARS-CoV-2 Nluc EC50, A549-hACE2 cells, + 640 nm CQ) it was 46 nM; with SARS-CoV-2 (read-out: SARS-CoV-2 Nluc EC50, A549-hACE2 cells, + 2500 nm HCQ), 63 nM; in data set [4] (chloroquine 0 nM), 49.5 ± 13.1 nM; in data set [4] (chloroquine 10 nM), 58.4 ± 12.8 nM. The EC50 in data set [4] (chloroquine 40 nM) was determined as 72.1 ± 24.8 nM; in data set [4] (chloroquine 160 nM), 99.6 ± 30.3 nM; in data set [4] (chloroquine 640 nM) it was 138 ± 33.8 nM; in data set [4] (chloroquine 2560 nM), 209 ± 18.2 nM. For the same molecule, the “Mean RDV-TP” value in the data set on A549-hACE2 cells [2] (2 h) is 3.6 ± 0.2 pmol/million cells; in the data set with A549-hACE2 cells [2] (24 h) it was 6.8 ± 1.3 pmol/million cells; in the data set on A549-hACE2 cells [2] (48 h), 3.0 ± 0.5 pmol/million cells; with HEp-2 cells [5] (1 μM Formula Ia + 1 μM CQ), “BLQ”; in the data set on HEp-2 cells [5] (1 μM Formula Ia + 1 μM HCQ), “BLQ”; with HEp-2 cells [5] (1 μM Formula Ia + 10 μM CQ) it was “BLQ”. Besides, the “Mean RDV-TP” value with HEp-2 cells [5] (1 μM Formula Ia + 10 μM HCQ) and in the data set on HEp-2 cells [5] (1 μM Formula Ia alone) was “BLQ” throughout.
Consider `CCN(CCO)CCCC(C)Nc1ccnc2cc(Cl)ccc12` (centres unmarked) [HCQ, 2-[{4-[(7-chloroquinolin-4-yl)amino]pentyl}(ethyl)amino]ethanol, reference compound], for which the Cytotoxicity entry with A549-hACE2 cells [6] was “not observed”. For the same molecule, the “Nluc signal (SARS-CoV-2 replication)” value in the data set with SARS-CoV-2 (A549-hACE2 cells) was “fully suppressed”. For the same molecule, the EC50 in the data set with SARS-CoV-2 (setting [7]) is approximately 365 nM. Also, in data set [1], the Average systemic exposures entry is “approximately 1.7 μM”.
